The source of these data is ChEMBL document CHEMBL3627664, “Towards the evaluation in an animal disease model: Fluorinated 17β-HSD1 inhibitors showing strong activity towards both the human and the rat enzyme” (Eur J Med Chem, 2015).

The target in the test is T1, 17-beta-hydroxysteroid dehydrogenase type 1 (Homo sapiens, UniProt P14061).
T1 sequence (P14061 whole entry): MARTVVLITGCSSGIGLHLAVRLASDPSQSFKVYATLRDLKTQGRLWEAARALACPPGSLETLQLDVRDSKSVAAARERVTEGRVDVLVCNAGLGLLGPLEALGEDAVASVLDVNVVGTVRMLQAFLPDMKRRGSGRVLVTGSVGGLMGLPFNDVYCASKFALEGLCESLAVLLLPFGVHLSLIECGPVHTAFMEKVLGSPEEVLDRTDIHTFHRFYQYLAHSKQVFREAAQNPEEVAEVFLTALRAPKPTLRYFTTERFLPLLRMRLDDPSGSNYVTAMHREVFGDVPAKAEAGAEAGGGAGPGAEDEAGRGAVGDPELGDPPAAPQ

Consider `O=C(c1cccc(O)c1)c1ccc(-c2ccc(NS(=O)(=O)c3ccc(Br)cc3OC(F)(F)F)cc2)s1`, for which the IC50 worked out at 169 nM. To `N#Cc1cccc(S(=O)(=O)Nc2cccc(-c3c(O)ccc4cc(-c5cccc(O)c5)ccc34)c2)c1` belongs 21 nM; to `Cc1ccc(C(=O)c2ccc(-c3cccc(O)c3)s2)cc1O`, 46 nM; to `N#Cc1cccc(S(=O)(=O)Nc2cccc(-c3ccc(C(=O)c4cccc(O)c4)s3)c2)c1`, 23 nM. For `COc1cccc(S(=O)(=O)Nc2cccc(-c3ccc(C(=O)c4cccc(O)c4)s3)c2)c1` the value was 35 nM. For `O=C(c1cccc(O)c1)c1ccc(-c2cccc(O)c2)s1` the value was 69 nM. With `O=C(Nc1cccc(-c2ccc(C(=O)c3cccc(O)c3)s2)c1)c1cccc(O)c1`, the IC50 stood at 33 nM. For `O=C(c1ccc(C(F)(F)F)c(O)c1)c1ccc(-c2cccc(O)c2)s1` the value was 38 nM. `O=C(c1ccc(F)c(O)c1)c1cc2cc(O)ccc2s1`: 89 nM corresponded to half-maximal inhibition (IC50). For the compound `N#Cc1ccc(S(=O)(=O)Nc2cccc(-c3ccc(C(=O)c4cccc(O)c4)s3)c2)cc1`, half-maximal inhibition (IC50) was put at 56 nM. To `Cc1ccccc1S(=O)(=O)Nc1cccc(-c2ccc(C(=O)c3cccc(O)c3)s2)c1` belongs 17 nM; to `Cc1ccc(S(=O)(=O)Nc2cccc(-c3ccc(C(=O)c4cccc(O)c4)s3)c2)cc1`, 12 nM; to `O=C(c1cccc(O)c1)c1cc2ccc(O)cc2s1`, 12 nM.

The IC50 is the concentration that gives 50% inhibition. Read a high IC50 as weaker potency in that assay.
